{
  "source": "paper PMC3377386",
  "about": "(Pharmaceutical Research, 2011)",
  "key": {"[1]": {"conditions": "in seven days; a similarly done study (reference not given); cited from earlier work"}, "[2]": {"conditions": "for Css: one 50-MN array"}, "[3]": {"conditions": "I.V. dose of 3 mg/kg; cited from earlier work"}, "[4]": {"conditions": "hairless, guinea pig, in vivo"}, "[5]": {"conditions": "MN + Solaraze® + 16% NTX·HCl, n=4"}},
  "note": "Counter-ions that a name gives are not always drawn. Like-named read-outs stand apart in the source and are kept apart here.",
  "data": [
    {"smiles": "O=C1CC[C@@]2(O)[C@H]3Cc4ccc(O)c5c4[C@@]2(CCN3CC2CC2)[C@H]1O5", "note": "[NTX·HCl, naltrexone HCl]", "values": [
      {"measurement": "fraction of the total drug applied delivered through the skin", "setting": "[1]", "result": "less than 5%"},
      {"measurement": "delivered fraction of the dose", "setting": "[2]; 2.65 mg of 80 mg NTX applied to the MN-treated area", "result": "less than 5%"},
      {"measurement": "Css", "setting": "[2]; MN + 16% NTX·HCl (control, no Solaraze®), n=4", "result": "3.4 ± 1.3", "unit": "ng/mL"},
      {"measurement": "Tlag", "setting": "[2]; MN + 16% NTX·HCl (no Solaraze®), n=4", "result": "1.8 ± 1.5", "unit": "h"},
      {"measurement": "duration of increased plasma levels (Css)", "setting": "[2]; MN + Solaraze® + 16% NTX·HCl gel, n=4", "result": "seven"},
      {"measurement": "Tlag", "setting": "[2]; [5]", "result": "21.5 ± 12.6", "unit": "h"},
      {"measurement": "Css", "setting": "[2]; [5]", "result": "7.0 ± 1.5", "unit": "ng/mL"},
      {"measurement": "time at which NTX·HCl levels returned to baseline", "setting": "[2]; control: one-time MN + 0.5 g 16% NTX·HCl, 6.7 cm^2, no Solaraze®", "result": "≤ 60", "unit": "h"},
      {"measurement": "flux corresponding to the steady-state concentration", "setting": "[2]; from Css of 7.0 ng/ml, 6.7 cm^2 patch", "result": "approximately 16.14 nmol/cm^2/h"},
      {"measurement": "systemic dose AUC", "setting": "[3]", "result": 546, "unit": "ng/mL/h"},
      {"measurement": "total delivery of naltrexone", "setting": "[4]", "result": 2.65, "unit": "mg"}
    ]}
  ]
}
